Where “and” joins values, the source holds several entries; their conditions need not be identical. Equal entries are not always repeated.
Assays:
Salmonella gallinarum = experiment: controlling fowl typhoid in chicks, medicated feed; assay type: in vivo, Salmonella gallinarum (in sex-linked pullet chicks); details: 10 days
Experimental: Groups of five one-day old sex-linked pullet checks are infected orally by gavage with 0.5 ml. of a 10^-^2 dilution of a five-hour Trypticase Soy Broth culture of Salmonella gallinarum, the causative agent of fowl typhoid. Each chick receives approximately 6 × 10^5 viable cells. Medication is administered continuously in the feed, beginning 3 hours before infection and continuing for 10 days, at which time the test is terminated and the number of survivors in each group recorded. Each test utilizes two control groups of chicks, the first group comprising 20 chicks which are infected and untreated, and the second group comprising 10 chicks which are uninfected and untreated. The results of the tests are set forth in the following Table III (in some instances, the results from two or more tests are combined): […]

Escherichia coli = experiment: controlling colibacillosis in chicks infected with Escherichia coli, single oral dose; assay type: in vivo, Escherichia coli (in sex-linked pullet chicks); details: 12 days after treatment
Experimental: Three groups of 10 five-day old sex-linked pullet chicks are infected parenterally, in the left thoracic air sac, with 0.2 ml. of a 10^-^1 dilution of a Trypticase Soy Broth culture of Escherichia coli, the causative agent of colibacillosis in poultry. The compounds to be tested are administered by gavage as a single oral dose in an aqueous solution or suspension, and the chicks are permitted to feed ad libitum the feed composition prepared in Example 44. Twelve days after treatment, the test is terminated and the number of survivors in each group recorded.
Four groups of 40, five-day old sex-linked pullet chicks are infected in the same manner as herein set forth with Escherichia coli. […] Twelve days after treatment, the test is terminated and the number of survivors in each group recorded.

Pasteurella multocida [1] = experiment: controlling a Pasteurella multocida infection in mice; assay type: in vivo, Pasteurella multocida (in Swiss Webster female mice); details: 336 h, two weeks post-infection, read-out: Survivors/Total (converted); for responders at 0.5 mg: 0.5 mg./mouse by gavage; for responders at 0.25 mg: 0.25 mg./mouse by gavage; for responders at 1 mg: 1 mg./mouse by gavage
Pasteurella multocida [2] = experiment: as above; assay type: in vivo, Pasteurella multocida (in Swiss Webster female mice); details: 336 h, 2 mg./mouse by gavage, two weeks post-infection, read-out: Survivors/Total (converted)
Experimental: Swiss Webster, female mice weighing 22±2 g. were infected by intrapeutoneal injection of 0.5 ml. of a 5 hour Trypticase Soy Broth culture containing 10^7 cfu. of P. multocida. Each mouse was given by gavage at the time of infection 2 mg. of the test drug suspended in 0.2% agar.

[3] = enhancing the growth rate and improving feed efficiency, chicks; assay type: in vivo
Source text: Day-old chicks are divided into groups of ten birds each, five males and five females. These groups are then weighted, placed in pens and given free access to water and feed. […] All feed is weighed such that an accurate determination as to the amount of gain per unit of feed can be ascertained. […]

[4] = 0.025% in feed, 10 chicks tested
[5] = 0.006% in feed, 5 chicks tested
[6] = 0.025% in feed, 5 chicks tested
[7] = 0.006% in feed, 10 chicks tested
[8] = 100 PPM in diet, average of two groups
[9] = 100 PPM in diet, groups of 10 and 9 birds, listed as 2-(2-amino-5-thiadiazolyl)-1-(2-hydroxyethyl)5-nitroimidazole
[10] = 10 ppm in diet, 10 birds, 19 days
[11] = 10 ppm in diet, 10 birds, 19 days, listed as 1-[5-(1-Methyl-5-nitro-2-imidazolyl)-1,3,4-thiadiazol-2-yl]-4-(2-thiazolyl)piper
[12] = 10 ppm in diet, 10 birds, listed as 1-[5-(1-Methyl-5-nitro-2-imidazolyl)-1,3,4-thiadiazol-2-yl]-4-(2-thiazolyl)piper

CC(=O)Nc1nnc(-c2ncc([N+](=O)[O-])n2C)o1 [2-(2-Acetamido-5-oxadiazolyl)-1-methyl-5-nitroimidazole]
Survivors (Salmonella gallinarum; [4]): 8 | Survivors (Salmonella gallinarum; 0.1% in feed, 10 chicks tested): 10

CC(=O)Nc1nnc(-c2ncc([N+](=O)[O-])n2C)s1 [2-(2-Acetamido-5-thiadiazolyl)-1-methyl-5-nitro-imidazole]
Survivors (Salmonella gallinarum; [5]): 3 | Survivors (Salmonella gallinarum; [6]): 4 | Survivors (Salmonella gallinarum; 0.1% in feed, 5 chicks tested): 5 | Survivors (Escherichia coli; 10 mg/kg single oral dose, 40 chicks tested): 29 | Survivors (Escherichia coli; 20 mg/kg single oral dose, 40 chicks tested): 35 | Survivors (Escherichia coli; 40 mg/kg single oral dose, 40 chicks tested): 39

Nc1nnc(-c2ncc([N+](=O)[O-])n2CCO)o1 [2-(2-Amino-5-oxadiazolyl)-1-(2-hydroxyethyl)-5-nitroimidazole]
responders at 0.5 mg (Pasteurella multocida [1]): 90% | responders at 2 mg (Pasteurella multocida [2]): 100%

Nc1nnc(-c2ncc([N+](=O)[O-])n2Cc2ccccc2)o1 [2-(2-Amino-5-oxadiazolyl)-1-benzyl-5-nitroimidazole]
Survivors (Salmonella gallinarum; [7]): 1 | Survivors (Salmonella gallinarum; [4]): 1 | Survivors (Salmonella gallinarum; 0.1% in feed, 10 chicks tested): 9

Nc1nnc(-c2ncc([N+](=O)[O-])n2Cc2ccccc2)s1 [2-(2-Amino-5-thiadiazolyl)-1-benzyl-5-nitroimidazole]
Survivors (Salmonella gallinarum; [4]): 4 | Survivors (Salmonella gallinarum; 0.1% in feed, 10 chicks tested): 10 | responders at 2 mg (Pasteurella multocida [2]): 0%

Nc1nnc(-c2ncc([N+](=O)[O-])n2CCO)s1 [2-(2-Amino-5-thiodiazolyl)-1-(2-hydroxyethyl)-5-nitroimidazole]
responders at 0.25 mg (Pasteurella multocida [1]): 76.7% | responders at 0.5 mg (Pasteurella multocida [1]): 90% | responders at 1 mg (Pasteurella multocida [1]): 100% | Survivors (Salmonella gallinarum; [4]): 8 | Survivors (Salmonella gallinarum; 0.1% in feed, 10 chicks tested): 10 | % inc. over Controls, F/G ([3]; 100 PPM in diet, 19 days): 6.5% | % inc. over Controls, Gain ([3]; 100 PPM in diet, 19 days): 7.6% | Average Gain 19 Days [3, 8]: 297 Grams | Average Wt. at 19 days [3, 8]: 340 Grams | Average lb. feed/lb. gain ([3]; 100 PPM in diet, average of two groups, 19 days): 1.525 lb. feed/lb. gain | lb.feed/lb. gain ([3]; 100 PPM in diet, groups of 10 and 9 birds, 19 days, listed as 2-(2-amino-5-thiadiazolyl)-1-(2-hydroxyethyl)5-nitroimidazole): 1.53 lb. feed/lb. gain and 1.52 lb. feed/lb. gain | Gain 19 Days [3, 9]: 309 Grams and 285 Grams | Wt. at 19 days [3, 9]: 352.2 Grams and 327.8 Grams

Cn1c([N+](=O)[O-])cnc1-c1nnc(NC2CCCCC2)s1 [2-(2-Cyclohexylamino-5-thiadiazolyl)-1-5-nitroimidazole]
Survivors (Salmonella gallinarum; 0.1% in feed, 10 chicks tested): 8

Cn1c([N+](=O)[O-])cnc1-c1nnc(NC(=O)C(Cl)Cl)s1 [2-(2-Dichloroacetamido-5-thiadiazolyl)-1-methyl-5-nitroimidazole]
Survivors (Salmonella gallinarum; 0.025% in feed, 15 chicks tested): 3 | Survivors (Salmonella gallinarum; 0.1% in feed, 10 chicks tested): 7

CCNc1nnc(-c2ncc([N+](=O)[O-])n2C)s1 [2-(2-Ethylamino-5-thiadiazolyl)-1-methyl-5-nitroimidazole]
Survivors (Salmonella gallinarum; [5]): 3 | Survivors (Salmonella gallinarum; [4]): 3 | Survivors (Salmonella gallinarum; 0.1% in feed, 10 chicks tested): 10 | responders at 2 mg (Pasteurella multocida [2]): 100%

Cn1c([N+](=O)[O-])cnc1-c1nnc(NCO)s1 [2-(2-Hydroxymethylamino-5-thiadiazolyl)-1-methyl-5-nitroimidazole]
Survivors (Salmonella gallinarum; [7]): 2 | Survivors (Salmonella gallinarum; [4]): 2 | Survivors (Salmonella gallinarum; 0.1% in feed, 10 chicks tested): 10 | responders at 2 mg (Pasteurella multocida [2]): 100%

CNc1nnc(-c2ncc([N+](=O)[O-])n2C)o1 [2-(2-Methylamino-5-oxadiazolyl)-1-methyl-5-nitroimidazole]
Survivors (Salmonella gallinarum; [7]): 8 | Survivors (Salmonella gallinarum; [4]): 10 | Survivors (Salmonella gallinarum; 0.1% in feed, 5 chicks tested): 5

Cn1c([N+](=O)[O-])cnc1-c1nnc(NC(=O)CN2CCOCC2)s1 [2-(2-Morpholinoacetamido-5-thiadiazolyl)-1-methyl-5-nitroimidazole]
Survivors (Salmonella gallinarum; [6]): 1 | Survivors (Salmonella gallinarum; 0.1% in feed, 10 chicks tested): 10 | responders at 2 mg (Pasteurella multocida [2]): 20%

Cn1c([N+](=O)[O-])cnc1-c1nnc(N2CCCCC2)s1 [2-(2-Piperidino-5-thiadiazolyl)-1-methyl-5-nitroimidazole]
responders at 0.25 mg (Pasteurella multocida [1]): 50% | responders at 0.5 mg (Pasteurella multocida [1]): 40% | responders at 1 mg (Pasteurella multocida [1]): 90% | Survivors (Salmonella gallinarum; 0.1% in feed, 10 chicks tested): 4 | Gain 19 Days ([3]; 10 ppm in diet, 10 birds): 292.7 Grams | Weight at 19 days ([3]; 10 ppm in diet, 10 birds): 334.7 Grams | % Increase Over Controls, F/G [3, 10]: 2.7% | % Increase Over Controls, Gain [3, 10]: 1.0% | lb.feed/lb. gain [3, 10]: 1.48 lb.feed/lb. gain

CCCn1c([N+](=O)[O-])cnc1-c1nnc(N)s1 [2-(2-amino-5-thiadiazolyl)-1-propyl-5-nitroimidazolo]
Survivors (Salmonella gallinarum; 0.1% in feed, 10 chicks tested): 6

CN(C)c1nnc(-c2ncc([N+](=O)[O-])n2CCO)o1 [2-(2-dimethylamino-5-oxadiazolyl)-1-(2-hydroxyethyl)-5-nitroimidazole]
Survivors (Salmonella gallinarum; [4]): 2 | Survivors (Salmonella gallinarum; 0.1% in feed, 10 chicks tested): 5

CNc1nnc(-c2ncc([N+](=O)[O-])n2CCO)o1 [2-(2-methylamino-5-oxadiazolyl)-1-(2-hydroxyethyl)-5-nitroimidazole]
Survivors (Salmonella gallinarum; 0.1% in feed, 10 chicks tested): 6

CCCCCCNc1nnc(-c2ncc([N+](=O)[O-])n2C)s1 [2-(2-n-Hexylamino-5-thiadiazolyl)-1-methyl-5-nitroimidazole]
responders at 0.25 mg (Pasteurella multocida [1]): 20% | responders at 0.5 mg (Pasteurella multocida [1]): 80% | responders at 1 mg (Pasteurella multocida [1]): 90% | Survivors (Salmonella gallinarum; 0.1% in feed, 10 chicks tested): 6

Cn1c([N+](=O)[O-])cnc1-c1nnc(NC(C)(C)C)s1 [2-(2-t-Butylamino-5-thiadiazolyl)-1-methyl-5-nitroimidazole]
Survivors (Salmonella gallinarum; 0.1% in feed, 10 chicks tested): 6

Cn1c([N+](=O)[O-])cnc1-c1nnc(N2CCNCC2)s1 [2-[2-(1-Piperazinyl)-5-thiadiazolyl]-1-methyl-5-nitroimidazole]
Survivors (Salmonella gallinarum; [4]): 1 | Survivors (Salmonella gallinarum; 0.1% in feed, 10 chicks tested): 8 | responders at 2 mg (Pasteurella multocida [2]): 10% | Survivors (Escherichia coli; 40 mg/kg single oral dose, 20 chicks tested): 6 | Survivors (Escherichia coli; 160 mg/kg single oral dose, 20 chicks tested): 18

CN1CCN(c2nnc(-c3ncc([N+](=O)[O-])n3C)s2)CC1 [2-[2-(4-Methyl-1-piperazinyl)-5-thiadiazolyl)-1-methyl-5-nitroimidazole]
Survivors (Salmonella gallinarum; 0.1% in feed, 10 chicks tested): 4

Cn1c([N+](=O)[O-])cnc1-c1nnc(N2CCN(CCO)CC2)s1 [2-[4-(2-Hydroxyethyl)-1-piperazinyl-5-thiadiazolyl]-1-methyl-5-nitroimidazole]
Survivors (Salmonella gallinarum; [4]): 3 | Survivors (Salmonella gallinarum; 0.1% in feed, 10 chicks tested): 7 | responders at 2 mg (Pasteurella multocida [2]): 100%

CN(CCO)c1nnc(-c2ncc([N+](=O)[O-])n2C)s1 [2-{2-N-(2-Hydroxyethyl)methylamino]-5-thiadiazolyl}-1-methyl-5-nitroimidazolo]
responders at 0.5 mg (Pasteurella multocida [1]): 10% | responders at 1 mg (Pasteurella multocida [1]): 30% | Survivors (Salmonella gallinarum; 0.1% in feed, 10 chicks tested): 8 | responders at 2 mg (Pasteurella multocida [2]): 100%

Cn1c([N+](=O)[O-])cnc1-c1nnc(N2CCN(c3nccs3)CC2)s1 [2-{2-[4-(2-Thiazolyl)-1-piperazinyl]-5-thiadiazolyl]-1-methyl-5-nitroimidazole]
responders at 2 mg (Pasteurella multocida [2]): 20% | % Increase Over Controls, F/G [3, 11]: 4.1% and 2.0% | % Increase Over Controls, Gain [3, 11]: 5.0% and 9.0% | lb.feed/lb. gain [3, 11]: 1.47 lb.feed/lb. gain and 1.50 lb.feed/lb. gain | Gain 19 Days [3, 12]: 315.5 Grams and 303.2 Grams | Weight at 19 days [3, 12]: 337.8 Grams and 346.9 Grams

CN(C)CCCC1CCN(c2nnc(-c3ncc([N+](=O)[O-])n3C)s2)CC1 [2-{2-[4-(3-Dimethylaminopropyl)-1-piperidino]-5-thiadiazolyl}-1-methyl-5-nitroimidazole]
responders at 0.5 mg (Pasteurella multocida [1]): 90% | responders at 2 mg (Pasteurella multocida [2]): 100%

CC(=O)Nc1nnc(-c2ncc([N+](=O)[O-])n2CCO)s1 [N-{5-[1-(2-Hydroxyethyl)-5-nitro-2-imidazolyl]-1,3,4-thiadiazol-2-yl-acetamide]
Gain 19 Days ([3]; 10 ppm in diet, 10 birds): 305.5 Grams | Weight at 19 days ([3]; 10 ppm in diet, 10 birds): 345.9 Grams | % Increase Over Controls, F/G [3, 10]: 0.6% | % Increase Over Controls, Gain [3, 10]: 0.7% | lb.feed/lb. gain [3, 10]: 1.57 lb.feed/lb. gain

Source: US3991200A, “Substituted nitroimidazolyl thiadiazoles and oxadiazoles as antibacterial agents and growth promoting compounds” (American Cyanamid Company, priority 1973, dated 1976)
